Like-named read-outs stand apart in the source and are kept apart here.
Experiments:
Format in all cases: cell-based
[1] = Cell viability measurement (MTS), Vero cells; details: monkey
Protocol: (§1) Experimental Example 3: Cell Viability Measurement
(§2) Vero cell line (VERO01WCB-1201, Ministry of Food and Drug Safety, Republic of Korea), Calu-3 cell line (KCLB #30055, Korea Cell Line Bank (KCLB), Republic of Korea), CellTiter 96® AQueous One Solution Cell Proliferation Assay kit (Promega, cat. #G3582), and Infinite M200 microplate reader (Tecan).
Vero cells were cultured at 37 °C and 5% CO2 in DMEM medium supplemented with 10% fetal bovine serum, 100 units/mL penicillin, and 100 μg/mL streptomycin.
(§3) Vero cells or Calu-3 cells were seeded in 96-well microplates and cultured for 24 hours until the cell confluency reached 20%. After the incubation, compounds were treated in DMSO at concentrations (1, 3, and 10 μM) to reach 0.5% v/v in each well, and reacted at 37 °C for 48 hours. Into each well of the incubated 96-well microplate, 3-(4,5-dimethylthiazol-2-yl)-5-(3-carboxymethoxyphenyl)-2-(4-sulfophenyl)-2H-tetrazolium salt (MTS) assay solution [CellTiter 96® AQueous One Solution Cell Proliferation Assay kit (Promega)] mixed with DMEM medium at a ratio of 1:5, was dispensed at 100 μL/well and incubated at 37 °C for 1 hour. The 490 nm and 690 nm absorbance was then measured using an Infinite M200 instrument.
(§4) The cell viability (also, referred to as cell survival rate) (%) by compound treatment was calculated using the following analysis method. The 690 nm background absorbance value was subtracted from the measured 490 nm absorbance value. Then, to obtain the cell viability of each test group, the viability of the DMSO-treated group that was not treated with the compound was set to 100% and then the relative viability 1 of each compound was calculated. Two to six repeated tests were performed to obtain the results, and the mean values of the results were categorized into the following ranges and shown in Table 5 below (A: 80% survived, B: 50-80% survived, N/A: not tested)

[2] = tested on: Severe Acute Respiratory Syndrome Coronavirus Type 2; test: microbe, parasite or virus in culture; details: Vero, 10 uM, read-out: Virus replication inhibition efficacy
[3] = tested on: Severe Acute Respiratory Syndrome Coronavirus Type 2; test: microbe, parasite or virus in culture; details: Calu-3, 10 uM, read-out: Virus replication inhibition efficacy
[4] = Cell viability measurement (MTS), Calu-3 cells; details: human
Protocol: as §1, §2
Calu-3 cells were cultured at 37 °C and 5% CO2 in MEM medium supplemented with 10% fetal bovine serum, 2.2 g/L sodium bicarbonate, 1% 100 units/mL penicillin, and 100 μg/mL streptomycin.
as §3, §4

[5] = virus strain NCCP-43344, 48 hours
[6] = virus strain NCCP-43388, 48 hours

Compound | viability at 48 h, 1 µM [1] [%] | viability at 48 h, 3 µM [1] [%] | viability at 48 h, 10 µM [1] [%] | viability at 48 h, 1 µM [4] [%] | other results
Fc1cc2nc(-c3cccc(Nc4ccc(-c5ccccc5)nn4)c3)[nH]c2cc1Br [Example 4, N-[3-(6-bromo-5-fluoro-1H-benzo[d]imidazol-2-yl)phenyl]-6-phenylpyridazin-3-amine] | > 80 | > 80 | 50 to 80 | – | –
FC(F)(F)Oc1ccc2nc(-c3cccc(Nc4ccc(-c5ccccc5)nn4)c3)[nH]c2c1 [Example 6, 6-phenyl-N-(3-(6-(trifluoromethoxy)-1H-benzo[d]imidazol-2-yl)phenyl)pyridazin-3-amine] | > 80 | 50 to 80 | – | – | –
FC(F)(F)c1cc2nc(-c3cccc(Nc4ccc(-c5ccccc5)nn4)c3)[nH]c2cc1Br [Example 9, N-{3-[6-bromo-5-(trifluoromethyl)-1H-benzo[d]imidazol-2-yl]phenyl}-6-phenylpyridazin-3-amine] | > 80 | 50 to 80 | – | – | inhibition at 10 µM [2, 5]: 30 to 60%
Clc1cc2nc(-c3cccc(Nc4ccc(-c5ccccc5)cn4)c3)[nH]c2cc1Cl [Example 13, N-[3-(5,6-dichloro-1H-benzo[d]imidazol-2-yl)phenyl]-5-phenylpyridin-2-amine] | > 80 | > 80 | 50 to 80 | – | inhibition at 10 µM [3, 5]: > 60%
FC(F)(F)c1ccc2nc(-c3cccc(Nc4ncc(-c5ccccc5)cn4)c3)[nH]c2c1 [Example 14, 5-phenyl-N-(3-(6-(trifluoromethyl)-1H-benzo[d]imidazol-2-yl)phenyl)pyrimidin-2-amine] | > 80 | – | – | – | –
Fc1cccc(-c2ccc(Nc3cccc(-c4nc5ccc(C(F)(F)F)cc5[nH]4)c3)nc2)c1 [Example 18, 5-(3-fluorophenyl)-N-(3-(6-(trifluoromethyl)-1H-benzo[d]imidazol-2-yl)phenyl)pyridin-2-amine] | > 80 | – | 50 to 80 | – | –
Fc1ccc2nc(-c3cccc(Nc4ccc(-c5cccnn5)cc4)c3)[nH]c2c1 [Example 25, 3-(6-fluoro-1H-benzo[d]imidazol-2-yl)-N-(4-(pyridazin-3-yl)phenyl)aniline] | > 80 | > 80 | > 80 | – | inhibition at 10 µM [3, 5]: > 60%
FC(F)(F)c1ccc2nc(-c3cccc(Nc4ccc(-c5cnccn5)cc4)c3)[nH]c2c1 [Example 29, N-[4-(pyrazin-2-yl)phenyl]-3-[6-(trifluoromethyl)-1H-benzo[d]imidazol-2-yl]aniline] | > 80 | – | – | – | –
c1cc(Nc2ccc(-c3cncnc3)cc2)cc(-c2nc3ccccc3[nH]2)c1 [Example 30, 3-(1H-benzo[d]imidazol-2-yl)-N-(4-(pyrimidin-5-yl)phenyl)aniline] | > 80 | 50 to 80 | – | 50 to 80 | inhibition at 10 µM [3, 6]: > 60%
c1cncc(-c2ccc(Nc3cccc(-c4nc5ccccc5[nH]4)c3)cc2)c1 [Example 31, N-[3-(1H-benzo[d]imidazol-2-yl)phenyl]-4-(pyridin-3-yl)aniline] | > 80 | – | 50 to 80 | 50 to 80 | –
c1cc(Nc2ccc(-c3cnccn3)cc2)cc(-c2nc3ccccc3[nH]2)c1 [Example 32, 3-(1H-benzo[d]imidazol-2-yl)-N-(4-(pyrazin-2-yl)phenyl)aniline] | > 80 | > 80 | 50 to 80 | > 80 | viability at 48 h, 3 µM [4]: 50 to 80%; inhibition at 10 µM [3, 6]: > 60%
Cc1cscc1-c1cnc(Nc2cccc(-c3nc4ccccc4[nH]3)c2)nc1 [Example 43, N-(3-(1H-benzo[d]imidazol-2-yl)phenyl)-5-(4-methylthiophen-3-yl)pyrimidin-2-amine] | > 80 | – | > 80 | > 80 | viability at 48 h, 3 µM [4]: 50 to 80%
c1ccc(-c2cnc(Nc3cccc(-c4nc5ccccc5[nH]4)c3)nc2)nc1 [Example 44, N-(3-(1H-benzo[d]imidazol-2-yl)phenyl)-5-(pyridin-2-yl)pyrimidin-2-amine] | – | – | – | > 80 | viability at 48 h, 3 µM [4]: 50 to 80%; inhibition at 10 µM [3, 6]: > 60%
Fc1ccc2nc(-c3cccc(Nc4ncc(-c5ccccn5)cn4)c3)[nH]c2c1 [Example 45, N-[3-(6-fluoro-1H-benzo[d]imidazol-2-yl)phenyl]-5-(pyridin-2-yl)pyrimidin-2-amine] | – | > 80 | 50 to 80 | 50 to 80 | inhibition at 10 µM [3, 6]: 30 to 60%
FC(F)(F)c1ccc2nc(-c3cccc(Nc4ncc(-c5cccnn5)cn4)c3)[nH]c2c1 [Example 52, 5-(pyridazin-3-yl)-N-(3-(6-(trifluoromethyl)-1H-benzo[d]imidazol-2-yl)phenyl)pyrimidin-2-amine] | > 80 | > 80 | > 80 | 50 to 80 | viability at 48 h, 3 µM [4]: 50 to 80%; viability at 48 h, 10 µM ([4]; 10 μM): 50 to 80%
Fc1ccc2nc(-c3cccc(Nc4ccc(-c5cccnn5)cn4)c3)[nH]c2c1 [Example 55] | > 80 | – | 50 to 80 | – | –
c1cc(Nc2ccc(-c3cccnn3)cn2)cc(-c2nc3ccccc3[nH]2)c1 [Example 56, N-[3-(1H-benzo[d]imidazol-2-yl)phenyl]-5-(pyridazin-3-yl)pyridin-2-amine] | > 80 | – | > 80 | > 80 | viability at 48 h, 3 µM [4]: 50 to 80%
FC(F)(F)c1ccc2nc(-c3cccc(Nc4ccc(-c5ccccn5)cn4)c3)[nH]c2c1 [Example 57, N-{3-[6-(trifluoromethyl)-1H-benzo[d]imidazol-2-yl]phenyl}-[2,3′-bipyridin]-6′-amine] | > 80 | > 80 | 50 to 80 | 50 to 80 | –
Fc1ccc2nc(-c3cccc(Nc4ccc(-c5ccccn5)cn4)c3)[nH]c2c1 [Example 58, N-(3-(6-fluoro-1H-benzo[d]imidazol-2-yl)phenyl)-[2,3′-bipyridine]-6′-amine] | > 80 | > 80 | – | 50 to 80 | –
c1ccc(-c2ccc(Nc3cccc(-c4nc5ccccc5[nH]4)c3)nc2)nc1 [Example 59, N-[3-(1H-benzo[d]imidazol-2-yl)phenyl]-[2,3′-bipyridin]-6′-amine] | > 80 | – | – | > 80 | viability at 48 h, 3 µM [4]: 50 to 80%
COC(=O)c1ccc2nc(-c3cccc(Nc4ccc(-c5cccnn5)cc4)c3)[nH]c2c1 [Example 61, methyl 2-(3-((4-(pyridazin-3-yl)phenyl)amino)phenyl)-1H-benzo[d]imidazol-6-carboxylate] | > 80 | – | – | – | –
Fc1ccc2nc(-c3cccc(Nc4ccc(-c5ccncn5)cn4)c3)[nH]c2c1 [Example 72, N-(3-(6-fluoro-1H-benzo[d]imidazol-2-yl)phenyl)-5-(pyrimidin-4-yl)pyridin-2-amine] | – | > 80 | – | – | –
c1cc(Nc2ncc(-c3ccncn3)cn2)cc(-c2nc3ccccc3[nH]2)c1 [Example 76, N-[3-(1H-benzo[d]imidazol-2-yl)phenyl]-[4,5′-bipyrimidin]-2′-amine] | – | – | – | – | inhibition at 10 µM [2, 6]: 30 to 60%; inhibition at 10 µM [3, 6]: 30 to 60%
c1cc(Nc2ncc(-c3ccsc3)cn2)cc(-c2nc3ccccc3[nH]2)c1 [Example 164, N-[3-(1H-benzo[d]imidazol-2-yl)phenyl]-5-(3-thienyl)pyrimidin-2-amine] | – | – | – | – | inhibition at 10 µM [2, 6]: > 60%; inhibition at 10 µM [3, 6]: > 60%
c1cc(Nc2ncc(-c3ncco3)cn2)cc(-c2nc3ccccc3[nH]2)c1 [Example 171, N-[3-(1H-benzo[d]imidazol-2-yl)phenyl]-5-oxazol-2-yl-pyrimidin-2-amine] | – | – | – | – | inhibition at 10 µM [2, 6]: > 60%; inhibition at 10 µM [3, 6]: > 60%
Fc1cccc(-c2cnc(Nc3cccc(-c4nc5ccc(C(F)(F)F)cc5[nH]4)c3)nc2)n1 [Example 258, 5-(6-fluoropyridin-2-yl)-N-(3-(6-(trifluoromethyl)-1H-benzo[d]imidazol-2-yl)phenyl)pyrimidin-2-amine] | – | – | – | – | inhibition at 10 µM [2, 6]: 30 to 60%
Fc1cc2nc(-c3cccc(Nc4cnc(-c5ccccn5)cn4)c3)[nH]c2cc1F [Example 298, N-(3-(5,6-difluoro-1H-benzo[d]imidazol-2-yl)phenyl)-5-(pyridin-2-yl)pyrazin-2-amine] | – | – | – | – | inhibition at 10 µM [3, 6]: 30 to 60%

From patent US20260364068A1, “ANTIVIRAL USE OF HETEROARYL DERIVATIVE COMPOUND” (UIF (University Industry Foundation), Yonsei University, priority 2022, published 2026)
